According to patent US8648105B2, “Diarylthiohydantoin compounds” (The Regents of the University of California, priority 2006, dated 2014):
Entries after “also recorded” stand apart in the source; their conditions may differ.

Tests used:
[1] = test system: LNCaP hormone sensitive xenograft; assay: LNCaP hormone sensitive xenograft model
Description: Each set included 6 mice. The mice were treated with 10 mg/kg per day.

AR = target: T1, AR (Homo sapiens, UniProt P10275); assay type: cell-based; parameters: rows headed: IC50 (nM) Reporter; Fold induction, AR response reporter; agonistic activity on AR response reporter (w); conditions: 125 nM to 1000 nM, FIG. 3
T1 sequence (P10275 1-920): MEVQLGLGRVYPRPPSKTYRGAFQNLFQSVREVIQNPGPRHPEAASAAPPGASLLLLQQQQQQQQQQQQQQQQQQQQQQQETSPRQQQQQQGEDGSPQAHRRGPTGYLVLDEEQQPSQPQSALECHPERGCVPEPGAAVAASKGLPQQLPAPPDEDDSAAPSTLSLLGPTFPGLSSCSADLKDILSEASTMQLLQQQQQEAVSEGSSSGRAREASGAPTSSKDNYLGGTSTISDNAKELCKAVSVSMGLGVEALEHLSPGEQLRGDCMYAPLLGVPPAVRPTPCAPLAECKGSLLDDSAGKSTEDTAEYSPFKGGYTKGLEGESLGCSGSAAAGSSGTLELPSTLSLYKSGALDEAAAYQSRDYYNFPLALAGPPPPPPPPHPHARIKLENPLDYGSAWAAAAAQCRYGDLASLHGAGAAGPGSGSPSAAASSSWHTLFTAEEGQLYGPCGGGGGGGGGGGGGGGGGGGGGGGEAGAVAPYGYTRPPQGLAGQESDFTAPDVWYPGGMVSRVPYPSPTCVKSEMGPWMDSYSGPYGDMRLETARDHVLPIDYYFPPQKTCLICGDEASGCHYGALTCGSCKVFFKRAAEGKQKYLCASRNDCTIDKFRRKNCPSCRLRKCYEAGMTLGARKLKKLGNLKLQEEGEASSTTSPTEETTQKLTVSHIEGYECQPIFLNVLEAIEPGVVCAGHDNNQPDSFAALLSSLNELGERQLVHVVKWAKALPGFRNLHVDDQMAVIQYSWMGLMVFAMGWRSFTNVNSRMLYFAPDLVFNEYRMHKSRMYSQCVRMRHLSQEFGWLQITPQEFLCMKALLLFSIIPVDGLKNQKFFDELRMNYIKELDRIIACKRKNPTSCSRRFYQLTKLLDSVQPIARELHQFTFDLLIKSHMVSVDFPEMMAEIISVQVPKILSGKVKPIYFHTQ
Description: The compounds were subjected to tests using an artificial AR response reporter system in a hormone refractory prostate cancer cell line. […] After two days of incubation, reporter activities were assayed.

LogP = assay type: physicochemical
LIAR cell line = assay: Luciferase activity of the LIAR cell line (FIG. 25); assay type: cell-based; conditions: 125 nmol to 1000 nmol
Text: FIG. 25 is a graph of luciferase activity of the LIAR cell line dosed with various compounds administered at concentrations ranging from 125 nmol to 1000 nmol.
The inventors have determined that what might appear to be a small change in the structure of hydantoin compounds may result in a large change in that compound's performance in treating prostate cancer.

[2] = test system: AR-overexpressed LNCaP xenograft tumors; assay: AR-overexpressed LNCaP xenograft model in castrated SCID mice; assay type: in vivo
Description: FIG. 7 is a graph of tumor size. AR overexpressing LNCaP cells were injected in the flanks of castrated SCID mice, subcutaneously. When tumors reached about 100 cubic mm, they were randomized into five groups. Each group had nine animals. […]. The tumors were measured three-dimensionally, width, length and depth, using a caliper.
FIG. 8 depicts experimental results of tumor size. At day 18, the animals were imaged via an optical CCD camera, 3 hours after last dose of treatment. A ROI was drawn over the tumor for luciferase activity measurement in photon/second. The right panels is a representation of the ROIs measurements.
Compounds of the invention are used to examine if the diaryihydantoin derivatives have in vivo effects on hormone refractory prostate cancer. First we examine this compound on xenograft tumors established from AR-overexpressed LNCaP cells. Engineered cells in Matrigel (Collaborative Biomedical) are injected subcutaneously into the flanks of the castrated male SCID mice. Tumor size is measured weekly in three dimensions using calipers. After xenograft tumors established (tumor size at least 40 mm^3), mice with tumors are randomized and treated with different doses of compounds orally once daily. The inhibitory effect on growth of AR-overexpressed LNCaP xenograft model is studied as follows. Mice with established LN-AR xenograft tumors are randomized and treated with indicated compounds orally once daily. Tumor size are measured by caliber.
All animal experiments were performed in compliance with the guidelines of the Animal Research Committee of the University of California at Los Angeles. Animals were bought from Taconic and maintained in a laminar flow tower in a defined flora colony. LNCaP-AR and LNCaP-vector cells were maintained in RPMI medium supplemented with 10% FBS. 10^6 cells in 100 μl of 1:1 Matrigel to RPMI medium were injected subcutaneously into the flanks of intact or castrated male SCID mice. Tumor size was measured weekly in three dimensions (length×width×depth) using calipers. Mice were randomized to treatment groups when tumor size reached approximately 100 mm^3. Drugs were given orally every day at 10 mg/kg and 50 mg/kg. To obtain pharmacodynamic readout, the animals were imaged via an optical CCD camera, 3 hours after last dose of the treatment. A ROI is drawn over the tumor for luciferase activity measurement in photon/second. The right panels were a representation of the ROIs measurements. […]

Question: For `CNC(=O)c1ccc(N2C(=S)N(c3ccc(C#N)c(C(F)(F)F)c3)C(=O)C23CCC3)cc1F` [NC53, N-methyl-4-[7-(4-cyano-3-trifluoromethylphenyl)-8-oxo-6-thioxo-5,7-diaza-spiro[3.4]oct-5-yl]-2-fluorobenzamide], which “rate of tumor growth (tumor volume)” value ([1]; 10 mg/kg per day, FIG. 6) is on record?
Answer: slower than mice treated with vehicle solution

Question: And the PSA levels ([1]; FIG. 16, relative to vehicle solution)?
Answer: PSA levels decreased

Question: And the “luciferase activity in LNCaP-AR cells” value (AR)?
Answer: acted to reduce luciferase activity

Question: And the logP (LogP)?
Answer: 3.2

Question: And the “luciferase activity (comparison)” value (LIAR cell line)?
Answer: less than the luciferase activity upon exposure to NC98

Question: What about the “photon emission associated with luciferase activity” value ([2]; FIG. 8, day 18, relative to vehicle) of the same molecule?
Answer: photon emission decreased

Question: What about the “tumor growth / tumor volume” value ([2]; oral once daily, FIG. 7: 10 or 50 mg/kg, 18 days) of the same molecule?
Answer: effective to prevent tumor growth and even to cause tumor shrinkage, and was distinctly more effective than bicalutamide; also recorded: tumors decreased in size
